Measured values: patent US9320734B2, “Small molecule inhibitors of the pleckstrin homology domain and methods for using same” (Board of Regents, The University of Texas System, priority 2008, dated 2016)
Values after ≈ are worked out from the molar mass of the structure shown. Where two headings read alike, the source gives them in different places.

Legend:
[1] = tested on: Panc-1 and MiaPaCa-2 pancreatic cancer cells; experiment: Cell viability assay (Table 3); conditions: for cytotoxicity: either cell line tested (Panc-1, MiaPaCa-2); for Cell viability (IC50): viability assay, cell line not given, N/I = no inhibition at the highest concentration tested
[2] = tested on: phospho-Ser473-AKT in Panc-1 cells; experiment: Cellular AKT inhibition, Western blot phospho-Ser473-AKT, Panc-1 cells
[3] = tested on: Panc-1 pancreatic cell line; experiment: Apoptosis, morphological assay, Panc-1 cells; type: cell-based, human; conditions: Panc-1, morphological assay
Description: (§1) AKT inhibition leads to cellular apoptosis.

[4] = tested on: MiaPaca-2 pancreatic cell line; experiment: Apoptosis, morphological assay, MiaPaCa-2 cells; type: cell-based, human; conditions: MiaPaca-2, morphological assay
Description: as §1

[5] = tested on: phospho-Ser473-AKT in MiaPaCa-2 cells; experiment: Cellular AKT inhibition, Western blot phospho-Ser473-AKT, MiaPaCa-2 cells; conditions: read-out: pAKT inhibition (IC50)
[6] = tested on: phospho-Ser473-AKT in BxPC-3; experiment: Cellular AKT inhibition, Western blot phospho-Ser473-AKT, BxPC-3 cells; type: cell-based, human; conditions: for inhibition at 10 µM: Homo sapiens
[7] = tested on: phospho-Ser473-AKT in HT-29 cells; experiment: Cellular AKT inhibition, Western blot phospho-Ser473-AKT, HT-29 cells; type: cell-based; conditions: human HT-29 colon cancer cells
Method: as §1
(§2) AKT activity was measured by Western blotting using anti-[…] AKT antibody. Downstream targets of AKT were detected also by Western blotting using specific anti-phospho antibodies and anti-actin was used as a loading control.

[8] = tested on: phospho-Ser473 AKT in NIH3T3 cells; experiment: Cellular AKT inhibition, phospho-Ser473 AKT, NIH3T3 cells; type: cell-based; conditions: mouse NIH3T3, phospho-Ser473 AKT
Method: as §2

HT-29 cells [9] = experiment: Cell survival / cytotoxicity, MTT assay, HT-29 cells; type: cell-based, human
HT-29 cells [10] = experiment: Metabolic stability under cell culture conditions (incubation with HT-29 cells); type: in vitro ADME, human; conditions: incubating with HT-29 cells at maximum DMEM concentration at 37° C.
Description: Compound 6 was too insoluble to obtain data.

Solubility = type: physicochemical
[11] = BXPC-3, read-out: % pAKT Inhibition, At 10 μM
[12] = BxPC-3, Western blots phospho-Ser473-AKT, 10 μM, NI = not inhibitory, read-out: % pAKT Inhibition, At 10 μM
[13] = MTT assay, read-out: Cell survival (IC50)
[14] = Western blotting, phospho-Ser473-AKT, MiaPaCa-2 cells, N/I = no inhibition at the highest concentration tested

In the case of `Nc1ccc(S(=O)(=O)Nc2nncs2)cc1` [Compound 100, 4-Amino-N-(1,3,4-thiadiazol-2-yl)benzenesulfonamide], the cytotoxicity [1] is reported as “did not exhibit cytotoxicity” and the “Cell viability (IC50)” value [1] is reported as “N/I”.

Work on `CCCCCCCCCC(=O)Nc1ccc(S(=O)(=O)Nc2nncs2)cc1` [Compound 101, N-(4-(N-1,3,4-Thiadiazol-2-ylsulfamoyl)phenyl)decanamide] yielded an IC50 ([2]; Homo sapiens, PANC-1, read-out: pAKT inhibition (IC50)) of 10 µM.

With `COCCOCCOCC(=O)Nc1ccc(S(=O)(=O)Nc2nncs2)cc1` [Compound 103] the “Apoptosis at 20 μmol/L” value [3] was 11.4 ± 0.5/ %, the “Apoptosis at 20 μmol/L” value [4] was 18.7 ± 3.1% and the IC50 ([2]; read-out: pAKT inhibition (IC50), Panc-1, Western blots phospho-Ser473-AKT) was greater than 50 µM. It also gave an IC50 ([5]; MiaPaca-2, Western blots phospho-Ser473-AKT) greater than 50 µM.

In the case of `Cc1nnc(NS(=O)(=O)c2ccc(N)cc2)s1` [Compound 105, 4-Amino-N-(5-methyl-1,3,4-thiadiazol-2-yl)benzenesulfonamide], the inhibition at 10 µM [6, 11] is reported as 11%.

With `CCCCCCCCCC(=O)Nc1ccc(S(=O)(=O)Nc2nnc(C)s2)cc1` [Compound 107, N-(4-(N-(5-Methyl-1,3,4-thiadiazol-2-yl)sulfamoyl)phenyl)decanamide] the inhibition at 10 µM [6, 12] was 11%.

For `CCCCCCCCCCCCc1ccc(S(=O)(=O)Nc2nnc(C)s2)cc1` [Compound 108, 4-Dodecyl-N-(5-methyl-1,3,4-thiadiazol-2-yl)benzenesulfonamide], the inhibition at 10 µM [6, 12] was 64%.

Compound `CCc1nnc(NS(=O)(=O)c2ccc(N)cc2)s1` [Compound 109, 4-Amino-N-(5-ethyl-1,3,4-thiadiazol-2-yl)benzenesulfonamide] has an inhibition at 10 µM [6, 12] of 16%.

With `CCc1nnc(NS(=O)(=O)c2ccc(NC(C)=O)cc2)s1` [Compound 110, N-(4-(N-(5-Ethyl-1,3,4-thiadizol-2-yl)sulfamoyl)phenyl)acetamide] the “% pAKT Inhibition, At 10 μM” value ([6]; BxPC-3, Western blots phospho-Ser473-AKT, 10 μM, NI = not inhibitory) was 45%.

With `CCCCCCCCCC(=O)Nc1ccc(S(=O)(=O)Nc2nnc(CC)s2)cc1` [Compound 111, N-(4-(N-(5-Ethyl-1,3,4-thiadiazol-2-yl)sulfamoyl)phenyl)decanamide] the inhibition at 10 µM [6, 12] was 22%.

`CC(C)(C)c1nnc(NS(=O)(=O)c2ccc(N)cc2)s1` [Compound 113, 4-Amino-N-(5-tert-butyl-1,3,4-thiadiazol-2-yl)benzenesulfonamide] showed an inhibition at 10 µM [6, 12] of 13%.

In the case of `CC(=O)Nc1ccc(S(=O)(=O)Nc2nnc(C(C)(C)C)s2)cc1` [Compound 114, N-(4-(N-(5-tert-Butyl-1,3,4-thiadiazol-2-yl)sulfamoyl)phenyl)acetamide], the inhibition at 10 µM [6, 12] is reported as 20%.

Compound `CCCCCCCCCC(=O)Nc1ccc(S(=O)(=O)Nc2nnc(C(C)(C)C)s2)cc1` [Compound 115, N-(4-(N-(5-tert-Butyl-1,3,4-thiadiazol-2-yl)sulfamoyl)phenyl)decanamide] has an inhibition at 10 µM [6, 12] of 16%.

`CCCCCCCCCCCCc1ccc(S(=O)(=O)Nc2nnc(C(C)(C)C)s2)cc1` [Compound 116, N-(5-tert-Butyl-1,3,4-thiadiazol-2-yl)-4-dodecylbenzenesulfonamide] showed an inhibition at 10 µM [6, 12] of 36%.

With `Nc1ccc(S(=O)(=O)Nc2nnc(CC(=O)O)s2)cc1` [Compound 117, 2-(5-(4-Aminophenylsulfonamido)-1,3,4-thiadiazol-2-yl)acetic Acid] the inhibition at 10 µM [6, 12] was 23%.

In the case of `CC(=O)Nc1ccc(S(=O)(=O)Nc2nnc(CC(=O)O)s2)cc1` [Compound 118, 2-(5-(4-Acetamidophenylsulfonamido)-1,3,4-thiadiazol-2-yl)acetic Acid], the inhibition at 10 µM [6, 12] is reported as 19%.

In the case of `CCOC(=O)Cc1nnc(NS(=O)(=O)c2ccc(NC(C)=O)cc2)s1` [Compound 118E, Ethyl 2-(5-(4-Acetamidophenylsulfonamido)-1,3,4-thiadiazol-2-yl)acetate], the inhibition at 10 µM [6, 12] is reported as 55%.

For `CCCCCCCCCC(=O)Nc1ccc(S(=O)(=O)Nc2nnc(CC(=O)O)s2)cc1` [Compound 119, 2-(5-(4-Decanamidophenylsulfonamido)-1,3,4-thiadiazol-2-yl)acetic Acid], the inhibition at 10 µM [6, 12] was 42%.

`CCCCCCCCCC(=O)Nc1ccc(S(=O)(=O)Nc2nnc(C(=O)OCC)s2)cc1` [Compound 123E, Ethyl 5-(4-Decanamidophenylsulfonamido)-1,3,4-thiadiazole-2-carboxylate] showed an inhibition at 10 µM [6, 12] of 10%.

Compound `Nc1ccc(S(=O)(=O)Nc2nnc(CO)s2)cc1` [Compound 125, 4-Amino-N-(5-(hydroxymethyl)-1,3,4-thiadiazol-2-yl)benzenesulfonamide] has an inhibition at 10 µM [6, 12] of 10%.

In the case of `CCCCCCCCCC(=O)Nc1ccc(S(=O)(=O)Nc2nnc(CO)s2)cc1` [Compound 127, N-(4-(N-(5-(hydroxymethyl)-1,3,4-thiadiazol-2-yl)sulfamoyl)phenyl)decanamide], the inhibition at 10 µM [6, 12] is reported as 11%.

`Nc1ccc(S(=O)(=O)Nc2nnc(S(N)(=O)=O)s2)cc1` [Compound 131, 5-(4-Aminophenylsulfonamido)-1,3,4-thiadiazole-2-sulfonamide] showed an inhibition at 10 µM [6, 11] of 18%.

With `CCCCCCCCCCCCc1ccc(S(=O)(=O)Nc2nnc(CCCCCN(C)c3ccc([N+](=O)[O-])c4nonc34)s2)cc1` [Compound 137, 4-Dodecyl-N-(5-(5-(methyl(7-nitrobenzo[c][1,2,5]oxadiazol-4-yl)amino)pentyl)-1,3,4-thiadiazol-2-yl)benzenesulfonamide] the AKT phosphorylation ([6]; BxPC-3 cells, compared with 104) was “inhibited AKT phosphorylation in a fashion similar to 104”.

`CCCCCCCCc1ccc(S(=O)(=O)Nc2nncs2)cc1` [Compound 153, 4-Octyl-N-(1,3,4-thiadiazol-2-yl)benzenesulfonamide] gave an inhibition at 10 µM [6, 12] of 10%.

`CCCCCCCCCCCCCCc1ccc(S(=O)(=O)Nc2nncs2)cc1` [Compound 156, 4-Tetradecyl-N-(1,3,4-thiadiazol-2-yl)benzenesulfonamide] showed an inhibition at 10 µM [6, 12] of 70%.

With `CCCCCCCCCCCCCCCCc1ccc(S(=O)(=O)Nc2nncs2)cc1` [Compound 157, 4-Hexadecyl-N-(1,3,4-thiadiazol-2-yl)benzenesulfonamide] the inhibition at 10 µM [6, 12] was 50%.

Compound `CC1=NN(C(=O)c2ccccc2)C(=O)C1/N=N/c1ccc(S(=O)(=O)Nc2ncccn2)cc1` (stereo not drawn) [Compound 331] has an IC50 [7] of 20 µM, an IC50 [8] of 11 µM and an IC50 (HT-29 cells [9]; HT-29 cells, NI = not inhibitory, read-out: Cytotoxicity (IC50 μM)) of 14 µM. It also gave a Metabolic half life (HT-29 cells [10]) of 1.03 h and a Solubility (Solubility) of 28.3 µM (≈ 13.1 µg/mL).

Work on `CC1=NN(C(=O)c2ccc(Cl)cc2)C(O)C1/N=N/c1ccc(S(=O)(=O)Nc2ncccn2)cc1` (stereo not drawn) [Compound 335] yielded an IC50 [7] of 5 µM, an IC50 [8] of 3 µM and a Solubility (Solubility) of less than 0.1 µM.

For `NS(=O)(=O)c1nnc(NS(=O)(=O)c2cccc3cccnc23)s1` [Compound 345], the IC50 (HT-29 cells [9]; [13]) was greater than 100 µM.

`CC1=NN(C(=O)c2ccc(Cl)cc2)C(=O)C1/N=N/c1ccc(S(=O)(=O)Nc2nnc(C)s2)cc1` (stereo not drawn) [Compound 389] gave an IC50 (HT-29 cells [9]; [13]) greater than 100 µM.

For `COc1cc(NS(=O)(=O)c2ccc(NS(=O)(=O)c3c(C)noc3C)cc2)nc(OC)n1` [Compound 415], the IC50 (HT-29 cells [9]; [13]) was 3.1 µM.

For `O=C(Nc1ccccc1)c1ccccc1NC(=O)c1ccccc1C(=O)O` [Compound 439], the “Cell viability (IC50)” value [1] was “N/I” and the IC50 [5, 14] was 50 µM.

In the case of `CCOc1ccccc1C(=O)Nc1ccccc1C(=O)O` [Compound 441], the “Cell viability (IC50)” value [1] is reported as “N/I” and the IC50 [5, 14] is reported as 25 µM.

In the case of `COc1cc(NS(=O)(=O)c2ccc(Nc3ccco3)cc2)nc(OC)n1` [Compound 444], the “Cell viability (IC50)” value [1] is reported as “N/I” and the IC50 [5, 14] is reported as 50 µM.

With `COc1cc(NS(=O)(=O)c2ccc(NC(=O)c3ccco3)cc2)nc(OC)n1` [Compound 445] the “Cell viability (IC50)” value [1] was “N/I” and the IC50 [5, 14] was 50 µM.

For `COc1cc(NS(=O)(=O)c2ccc(NC(C)=O)cc2)nc(OC)n1` [Compound 450], the “Cell viability (IC50)” value [1] was “N/I” and the IC50 [5, 14] was 50 µM.

In the case of `Cc1nnc(NS(=O)(=O)c2ccc(NS(=O)(=O)c3ccc4ccccc4c3)cc2)s1` [Compound 455], the cytotoxicity [1] is reported as “did not exhibit cytotoxicity” and the “Cell viability (IC50)” value [1] is reported as “N/I”.

For `Nc1ccc(S(=O)(=O)Nc2ccc(S(=O)(=O)Nc3nnc(S(N)(=O)=O)s3)cc2)cc1` [Compound 456], the “Cell viability (IC50)” value [1] was “N/I” and the IC50 [5, 14] was 50 µM.
